System: MV-4-11 cells
Experiment: Gene expression microarray analysis (Affymetrix PrimeView) and GSEA
Assay type: cell-based, human
Set-up: RFU PODN (11730768_x_at) / Fold change /veh PODN (11730768_x_at) / RFU LINC00158 (11744669_a_at) / Fold change /veh LINC00158 (11744669_a_at) / RFU DUSP10 (11751237_a_at) / Fold change /veh DUSP10 (11751237_a_at) / RFU ID3 (11757404_x_at) / Fold change /veh ID3 (11757404_x_at) / RFU PLEKHG5 (11737974_s_at) / Fold change /veh PLEKHG5 (11737974_s_at) / RFU LRRC4B (11730491_at) / Fold change /veh LRRC4B (11730491_at) / RFU GIMAP4 (11747438_a_at) / Fold change /veh GIMAP4 (11747438_a_at) / RFU KRT8 (11758183_x_at) / Fold change /veh KRT8 (11758183_x_at) / RFU CNN1 (11734310_a_at) / Fold change /veh CNN1 (11734310_a_at) / RFU VPS37D (11726825_at) / Fold change /veh VPS37D (11726825_at) / RFU C10orf10 (11716522_x_at) / Fold change /veh C10orf10 (11716522_x_at) / RFU KIR2DL2 /// KIR2DL4 /// KIR2DL5A /// KIR2DL5B /// KIR2DS1 /// KIR2DS2 /// KIR2DS3 /// KIR2DS4 /// KIR3DL3 /// KIR3DL3 /// KIR3DS1 (11738374_at) / Fold change /veh KIR2DL2 /// KIR2DL4 /// KIR2DL5A /// KIR2DL5B /// KIR2DS1 /// KIR2DS2 /// KIR2DS3 /// KIR2DS4 /// KIR3DL3 /// KIR3DL3 /// KIR3DS1 (11738374_at) / RFU C1QL1 (11718748_at) / Fold change /veh C1QL1 (11718748_at) / RFU TMPRSS4 (11747572_a_at) / Fold change /veh TMPRSS4 (11747572_a_at) / RFU HAMP (11756126_x_at) / Fold change /veh HAMP (11756126_x_at) / RFU RNFT2 (11725882_a_at) / Fold change /veh RNFT2 (11725882_a_at) / RFU NR4A2 (11747474_a_at) / Fold change /veh NR4A2 (11747474_a_at) / RFU ABCC12 (11746883_a_at) / Fold change /veh ABCC12 (11746883_a_at) / RFU TMEM136 (11760407_x_at) / Fold change /veh TMEM136 (11760407_x_at) / RFU CLDN22 /// WWC2 (11732394_at) / Fold change /veh CLDN22 /// WWC2 (11732394_at) / RFU HLA-DPB1 (11760878_x_at) / Fold change /veh HLA-DPB1 (11760878_x_at) / RFU SPINT1 (11716480_a_at) / Fold change /veh SPINT1 (11716480_a_at) / RFU GAP43 (11754022_s_at) / Fold change /veh GAP43 (11754022_s_at) / RFU A4GNT (11735810_at) / Fold change /veh A4GNT (11735810_at) / RFU PRB3 (11715151_x_at) / Fold change /veh PRB3 (11715151_x_at) / RFU TUBB4B (11761932_at) / Fold change /veh TUBB4B (11761932_at) / RFU CAPN14 (11732068_a_at) / Fold change /veh CAPN14 (11732068_a_at) / RFU TMCC2 (11721928_a_at) / Fold change /veh TMCC2 (11721928_a_at) / RFU IRGQ (11745062_a_at) / Fold change /veh IRGQ (11745062_a_at) / RFU FAM174B (11720279_a_at) / Fold change /veh FAM174B (11720279_a_at) / RFU TMPRSS4 (11748680_a_at) / Fold change /veh TMPRSS4 (11748680_a_at) / RFU FAM212B (11763350_a_at) / Fold change /veh FAM212B (11763350_a_at) / RFU PLEKHG5 (11743358_a_at) / Fold change /veh PLEKHG5 (11743358_a_at) / RFU ZSCAN30 (11745921_a_at) / Fold change /veh ZSCAN30 (11745921_a_at) / RFU CMKLR1 (11741424_a_at) / Fold change /veh CMKLR1 (11741424_a_at) / RFU LOC101060620 /// MAPK8IP1 (11723275_at) / Fold change /veh LOC101060620 /// MAPK8IP1 (11723275_at) / RFU SPTSSB (11747773_x_at) / Fold change /veh SPTSSB (11747773_x_at) / RFU PRSS12 (11739890_at) / Fold change /veh PRSS12 (11739890_at) / RFU BIN1 (11741810_x_at) / Fold change /veh BIN1 (11741810_x_at) / RFU WNT11 (11732464_a_at) / Fold change /veh WNT11 (11732464_a_at) / RFU C10orf10 (11716521_a_at) / Fold change /veh C10orf10 (11716521_a_at) / RFU C5orf56 (11738089_at) / Fold change /veh C5orf56 (11738089_at) / RFU CYB561 (11721691_x_at) / Fold change /veh CYB561 (11721691_x_at) / RFU ANKRD19P (11752326_a_at) / Fold change /veh ANKRD19P (11752326_a_at) / RFU OR2T12 /// OR2T33 /// OR2T8 (11738714_s_at) / Fold change /veh OR2T12 /// OR2T33 /// OR2T8 (11738714_s_at) / RFU VCAN (11748164_a_at) / Fold change /veh VCAN (11748164_a_at) / RFU JSRP1 (11732532_at) / Fold change /veh JSRP1 (11732532_at) / RFU KRTAP10-11 (11738290_x_at) / Fold change /veh KRTAP10-11 (11738290_x_at) / RFU MYO3A (11730013_a_at) / Fold change /veh MYO3A (11730013_a_at) / RFU EBF3 (11725865_a_at) / Fold change /veh EBF3 (11725865_a_at) / RFU CAMK2N1 (11719241_x_at) / Fold change /veh CAMK2N1 (11719241_x_at) / RFU C5orf56 (11738088_a_at) / Fold change /veh C5orf56 (11738088_a_at) / RFU OLFML3 (11715873_a_at) / Fold change /veh OLFML3 (11715873_a_at) / RFU LOC100653217 /// NTM (11731650_a_at) / Fold change /veh LOC100653217 /// NTM (11731650_a_at) / RFU MAPK11 (11762145_a_at) / Fold change /veh MAPK11 (11762145_a_at) / RFU FIZ1 (11724087_x_at) / Fold change /veh FIZ1 (11724087_x_at) / RFU OASL (11726364_x_at) / Fold change /veh OASL (11726364_x_at) / RFU SOX15 (11748057_x_at) / Fold change /veh SOX15 (11748057_x_at) / RFU CD79A (11719716_a_at) / Fold change /veh CD79A (11719716_a_at) / RFU HIST1H1D (11736915_at) / Fold change /veh HIST1H1D (11736915_at) / RFU CASKIN2 (11723855_a_at) / Fold change /veh CASKIN2 (11723855_a_at) / RFU LOC730098 (11760151_x_at) / Fold change /veh LOC730098 (11760151_x_at) / RFU OR4N2 (11742367_at) / Fold change /veh OR4N2 (11742367_at) / RFU PRRT2 (11749266_a_at) / Fold change /veh PRRT2 (11749266_a_at) / RFU SNX32 (11753110_a_at) / Fold change /veh SNX32 (11753110_a_at) / RFU CDHR5 (11726645_a_at) / Fold change /veh CDHR5 (11726645_a_at) / RFU RCAN1 (11760418_a_at) / Fold change /veh RCAN1 (11760418_a_at) / RFU FAM167A (11723789_a_at) / Fold change /veh FAM167A (11723789_a_at) / RFU FAM26E (11764081_at) / Fold change /veh FAM26E (11764081_at) / RFU ISYNA1 (11749810_s_at) / Fold change /veh ISYNA1 (11749810_s_at) / RFU ACY1 (11761880_at) / Fold change /veh ACY1 (11761880_at) / RFU 11764098_at / Fold change /veh 11764098_at / RFU SAMD14 (11745864_x_at) / Fold change /veh SAMD14 (11745864_x_at) / RFU NPB (11741838_a_at) / Fold change /veh NPB (11741838_a_at) / RFU TMPRSS6 (11731388_a_at) / Fold change /veh TMPRSS6 (11731388_a_at) / RFU KRTAP10-2 (11738614_at) / Fold change /veh KRTAP10-2 (11738614_at) / RFU ARHGAP8 /// PRR5-ARHGAP8 (11727945_x_at) / Fold change /veh ARHGAP8 /// PRR5-ARHGAP8 (11727945_x_at) / RFU KRTAP5-7 /// NADSYN1 (11734609_at) / Fold change /veh KRTAP5-7 /// NADSYN1 (11734609_at) / RFU RASL12 (11751679_a_at) / Fold change /veh RASL12 (11751679_a_at) / RFU CDKN2B (11736163_a_at) / Fold change /veh CDKN2B (11736163_a_at) / RFU PRF1 (11729649_at) / Fold change /veh PRF1 (11729649_at) / RFU, ZNF638 /// ZNF638-IT1 / Fold change vs veh, ZNF638 /// ZNF638-IT1 / RFU, PANK3 / Fold change vs veh, PANK3 / RFU, SH3YL1 / Fold change vs veh, SH3YL1 / RFU, ZEB2 / Fold change vs veh, ZEB2 / RFU, NRIP1 / Fold change vs veh, NRIP1 / RFU, PTTG1IP / Fold change vs veh, PTTG1IP / RFU, CAPN2 / Fold change vs veh, CAPN2 / RFU, MED14 / Fold change vs veh, MED14 / RFU, SNORA58 / Fold change vs veh, SNORA58 / RFU, C1orf63 / Fold change vs veh, C1orf63 / RFU, LRRFIP1 / Fold change vs veh, LRRFIP1 / RFU, NDUFAF7 / Fold change vs veh, NDUFAF7 / RFU, SLC12A2 / Fold change vs veh, SLC12A2 / RFU, IBTK / Fold change vs veh, IBTK / RFU, ESF1 / Fold change vs veh, ESF1 / Fold change vs veh, TMEM50B / RFU, TAOK1 / Fold change vs veh, TAOK1 / RFU, ACBD3 / Fold change vs veh, ACBD3 / RFU, TMA16 / Fold change vs veh, TMA16 / RFU, RWDD3 / Fold change vs veh, RWDD3 / RFU, BCAT1 / Fold change vs veh, BCAT1 / RFU, EDEM3 / Fold change vs veh, EDEM3 / RFU, TMEM33 / Fold change vs veh, TMEM33 / RFU, WDR75 / Fold change vs veh, WDR75 / RFU, AHCTF1 / Fold change vs veh, AHCTF1 / RFU, TFRC / Fold change vs veh, TFRC / RFU, ZDHHC17 / Fold change vs veh, ZDHHC17 / RFU, NOM1 / Fold change vs veh, NOM1 / RFU, ARL8B / Fold change vs veh, ARL8B / RFU, ZBTB11 / Fold change vs veh, ZBTB11 / RFU, TAMM41 / Fold change vs veh, TAMM41 / RFU, KIAA1704 /// LOC100996395 / Fold change vs veh, KIAA1704 /// LOC100996395 / RFU, ING1 / Fold change vs veh, ING1 / RFU, TRMT61B / Fold change vs veh, TRMT61B / RFU, FUBP3 / Fold change vs veh, FUBP3 / RFU, TP53 / Fold change vs veh, TP53 / RFU, TNKS2 / Fold change vs veh, TNKS2 / RFU, ZFP14 / Fold change vs veh, ZFP14 / RFU, ACTR2 / Fold change vs veh, ACTR2 / RFU, PPP3R1 / Fold change vs veh, PPP3R1 / RFU, PIK3R1 / Fold change vs veh, PIK3R1 / RFU, HNRNPA1 / Fold change vs veh, HNRNPA1 / RFU, RNF170 / Fold change vs veh, RNF170 / RFU, ZNF28 / Fold change vs veh, ZNF28 / RFU, RNGTT / Fold change vs veh, RNGTT / RFU, OGT / Fold change vs veh, OGT / RFU, BRD1 / Fold change vs veh, BRD1 / RFU, MARS / Fold change vs veh, MARS / RFU, ZNF655 / Fold change vs veh, ZNF655 / RFU, FAHD1 / Fold change vs veh, FAHD1 / RFU, BDP1 / Fold change vs veh, BDP1 / RFU, LRRCC1 / Fold change vs veh, LRRCC1 / RFU, ARID1A / Fold change vs veh, ARID1A / RFU, ZNF146 / Fold change vs veh, ZNF146 / RFU, ZNF330 / Fold change vs veh, ZNF330 / RFU, GPN3 / Fold change vs veh, GPN3 / RFU, C9orf123 / Fold change vs veh, C9orf123 / RFU, N4BP2L2 / Fold change vs veh, N4BP2L2 / RFU, ARFIP1 / Fold change vs veh, ARFIP1 / RFU, FAM179B / Fold change vs veh, FAM179B / RFU, BCL10 / Fold change vs veh, BCL10 / RFU, UHRF1BP1L / Fold change vs veh, UHRF1BP1L / RFU, BET1 / Fold change vs veh, BET1 / RFU, CNOT2 / Fold change vs veh, CNOT2 / RFU, ZNF268 / Fold change vs veh, ZNF268 / Fold change vs veh, ZNF507 / RFU, DGCR2 / Fold change vs veh, DGCR2 / RFU, WDSUB1 / Fold change vs veh, WDSUB1 / Fold change vs veh, HSP90B1 /// MIR3652 / RFU, ADSS / Fold change vs veh, ADSS / RFU, GK / Fold change vs veh, GK / RFU, ZNF148 / Fold change vs veh, ZNF148 / RFU, TAF9 / Fold change vs veh, TAF9 / RFU, SLC1A5 / Fold change vs veh, SLC1A5 / RFU, SLMO2 / Fold change vs veh, SLMO2 / RFU, ABCC4 / Fold change vs veh, ABCC4 / RFU, LOC101060439 /// RAP1B / Fold change vs veh, LOC101060439 /// RAP1B / RFU, RFX7 / Fold change vs veh, RFX7 / RFU, GTPBP10 / Fold change vs veh, GTPBP10 / RFU, CNEP1R1 / Fold change vs veh, CNEP1R1 / RFU, BIVM-ERCC5 /// ERCC5 / Fold change vs veh, BIVM-ERCC5 /// ERCC5 / RFU, ILF3 / Fold change vs veh, ILF3 / RFU 11762660_at / Fold change /veh 11762660_at / RFU VCAN (11757783_s_at) / Fold change /veh VCAN (11757783_s_at) / RFU DDX43 (11728927_at) / Fold change /veh DDX43 (11728927_at) / RFU KRT8 (11758188_x_at) / Fold change /veh KRT8 (11758188_x_at) / RFU NKD1 (11759106_at) / Fold change /veh NKD1 (11759106_at) / RFU SRD5A1 (11742802_a_at) / Fold change /veh SRD5A1 (11742802_a_at) / RFU TPSAB1 /// TPSB2 (11721975_s_at) / Fold change /veh TPSAB1 /// TPSB2 (11721975_s_at) / RFU GSTM3 (11746129_a_at) / Fold change /veh GSTM3 (11746129_a_at) / RFU IL23R (11737362_x_at) / Fold change /veh IL23R (11737362_x_at) / RFU TMEM51 (11727254_a_at) / Fold change /veh TMEM51 (11727254_a_at) / RFU PIWIL2 (11732686_x_at) / Fold change /veh PIWIL2 (11732686_x_at) / RFU ORM1 (11744905_x_at) / Fold change /veh ORM1 (11744905_x_at) / RFU CCDC152 (11743942_at) / Fold change /veh CCDC152 (11743942_at) / RFU ECM1 (11717891_a_at) / Fold change /veh ECM1 (11717891_a_at) / RFU IL23R (11748794_a_at) / Fold change /veh IL23R (11748794_a_at) / RFU TNFAIP8L3 (11732012_x_at) / Fold change /veh TNFAIP8L3 (11732012_x_at) / RFU MBOAT4 (11741988_at) / Fold change /veh MBOAT4 (11741988_at) / RFU 11764193_at / Fold change /veh 11764193_at / RFU TMEM53 (11763286_at) / Fold change /veh TMEM53 (11763286_at) / RFU MAGEB2 (11727129_at) / Fold change /veh MAGEB2 (11727129_at) / RFU TMEM200A (11744735_a_at) / Fold change /veh TMEM200A (11744735_a_at) / RFU CCDC152 (11751479_a_at) / Fold change /veh CCDC152 (11751479_a_at) / RFU FAM211A (11726209_a_at) / Fold change /veh FAM211A (11726209_a_at) / RFU RGS16 (11746705_a_at) / Fold change /veh RGS16 (11746705_a_at) / RFU VCAN (11755009_s_at) / Fold change /veh VCAN (11755009_s_at) / RFU RHOB (11743442_s_at) / Fold change /veh RHOB (11743442_s_at) / RFU RGS16 (11720943_a_at) / Fold change /veh RGS16 (11720943_a_at) / RFU RGS16 (11720944_at) / Fold change /veh RGS16 (11720944_at) / RFU, VPS4B / Fold change vs veh, VPS4B / RFU, CREB1 / Fold change vs veh, CREB1 / RFU, DNAJC13 / Fold change vs veh, DNAJC13 / RFU, GNAQ / Fold change vs veh, GNAQ / RFU, CDK5R1 / Fold change vs veh, CDK5R1 / RFU, ZRANB3 / Fold change vs veh, ZRANB3 / RFU, CUL4A / Fold change vs veh, CUL4A / RFU, CCNY / Fold change vs veh, CCNY / RFU, UFL1 / Fold change vs veh, UFL1 / RFU, COG3 / Fold change vs veh, COG3 / RFU, DIAPH2 / Fold change vs veh, DIAPH2 / RFU, SKA2 / Fold change vs veh, SKA2 / RFU, AFF3 / Fold change vs veh, AFF3 / RFU, LMF1 / Fold change vs veh, LMF1 / RFU, IPO11 / Fold change vs veh, IPO11 / RFU, DFFB / Fold change vs veh, DFFB / RFU, FOXP1 / Fold change vs veh, FOXP1 / RFU, CARD8 / Fold change vs veh, CARD8 / RFU, STRN3 / Fold change vs veh, STRN3 / RFU, ADK / Fold change vs veh, ADK / RFU, RASSF2 / Fold change vs veh, RASSF2 / RFU, WIPF1 / Fold change vs veh, WIPF1 / RFU, LARP1B / Fold change vs veh, LARP1B / RFU, RASA1 / Fold change vs veh, RASA1 / RFU, RB1 / Fold change vs veh, RB1 / RFU, PPFIA1 / Fold change vs veh, PPFIA1 / RFU, MAT2A / Fold change vs veh, MAT2A / RFU, CCT5 / Fold change vs veh, CCT5 / RFU, WDR92 / Fold change vs veh, WDR92 / RFU, CUX1 / Fold change vs veh, CUX1 / RFU, TTC7A / Fold change vs veh, TTC7A / RFU, TMEM135 / Fold change vs veh, TMEM135 / RFU, DEPTOR / Fold change vs veh, DEPTOR / RFU, CPM / Fold change vs veh, CPM / RFU, DNAJB6 / Fold change vs veh, DNAJB6 / RFU, CACNA2D3 / Fold change vs veh, CACNA2D3 / RFU, DTX4 / Fold change vs veh, DTX4 / RFU, TFCP2 / Fold change vs veh, TFCP2 / RFU, GMCL1 /// GMCL1P1 / Fold change vs veh, GMCL1 /// GMCL1P1 / RFU, AEBP2 / Fold change vs veh, AEBP2 / RFU, SNHG1 /// SNORD22 /// SNORD25 /// SNORD26 /// SNORD27 /// SNORD28 /// SNORD29 /// SNORD31 / Fold change vs veh, SNHG1 /// SNORD22 /// SNORD25 /// SNORD26 /// SNORD27 /// SNORD28 /// SNORD29 /// SNORD31 / Fold change (Aza/veh), C12orf56 (ProbeSet 11735607_a_at) / Fold change (ACY-1035/veh), C12orf56 (ProbeSet 11735607_a_at) / Fold change (Aza/veh), FGFR1OP (ProbeSet 11751329_s_at) / Fold change (ACY-1035/veh), FGFR1OP (ProbeSet 11751329_s_at) / Fold change (Aza/veh), VPS36 (ProbeSet 11739960_a_at) / Fold change (ACY-1035/veh), VPS36 (ProbeSet 11739960_a_at) / RFU SYPL1 (11715823_x_at) / Fold change /veh SYPL1 (11715823_x_at) / RFU IGFBP7 (11715501_s_at) / Fold change /veh IGFBP7 (11715501_s_at) / RFU REEP3 (11722064_at) / Fold change /veh REEP3 (11722064_at) / RFU IGLL1 (11728026_x_at) / Fold change /veh IGLL1 (11728026_x_at): dose or concentration left out as unconfirmed
Details: ProbeSet 11754362_a_at; LIST D

How did the “Fold change vs veh, TTC7A” value turn out when `Nc1ncn([C@@H]2O[C@H](CO)[C@@H](O)[C@H]2O)c(=O)n1` [azacitidine] was run?
The value was 0.72.
